Data published in patent publication US9169288B2, “Peptidomimetics and their application” (Instytut Medycyny Doswiadczalnej i Klinicznej im. Miroslawa …, priority 2012, dated 2015).
Read-outs that look alike come from different tables or passages of the source.

Legend:
Conditions in all cases: mouse, at 4 hours
[1] = tested on: constipation induced by loperamide
Procedure: The mice were divided into three groups one as control and two administered with loperamide hydrochloride (5 mg/kg).

[2] = tested on: constipation induced by loperamide; remark: listed apart in the source
[3] = tested on: constipation induced by morphine
Procedure: The mice were divided into three groups one as control and two administered intraperitoneally with morphine hydrochloride (5 mg/kg).

With `CN(C)C(=O)C(CCN1CCC(O)(c2ccc(Cl)cc2)CC1)(c1ccccc1)c1ccccc1` [loperamide, reference compound] the “wet weight of stools, opioid alone” value ([1]; loperamide hydrochloride 5 mg/kg alone, control group 200 mg) was 15 mg and the “wet weight of stools, opioid alone” value ([2]; loperamide 5 mg/kg orally in 20% gum arabic alone, control group 200 mg) was 22 mg.

With `CN1CC[C@]23c4c5ccc(O)c4O[C@H]2[C@@H](O)C=C[C@H]3[C@H]1C5` [morphine, reference compound] the “wet weight of stools, opioid alone” value ([3]; morphine hydrochloride 5 mg/kg intraperitoneally alone, control group 200 mg) was 25 mg.

With “Tyrosyl-D-arginyl-cinnamylpiperazine dihydrochloride [peptidomimetic 3]” the “stools relative to control group” value ([2]; loperamide 5 mg/kg with peptidomimetic 10 mg/kg in 20% gum arabic) was 60% and the “wet weight of stools” value ([2]; loperamide 5 mg/kg with peptidomimetic 10 mg/kg in 20% gum arabic, control group 200 mg) was 120 mg.

With “tyrosyl-D-alanyl-glycyl-cinnamylpiperazine hydrochloride [peptidomimetic 1]” the “stools relative to control group” value ([1]; peptidomimetic 10 mg/kg orally 30 minutes before loperamide hydrochloride 5 mg/kg) was 80% and the “wet weight of stools” value ([1]; peptidomimetic 10 mg/kg orally 30 minutes before loperamide hydrochloride 5 mg/kg, control group 200 mg) was 160 mg.

For “tyrosyl-D-threonyl-glycyl-phenylalanyl-cinnamylpiperazine hydrochloride [peptidomimetic 2]”, the “reversal of morphine effect on stools” value ([3]; peptidomimetic orally 30 minutes before morphine hydrochloride 5 mg/kg intraperitoneally) was “fully reversed morphine effect”.
